# In patent US12337042B2, “Structural optimization method to improve the theranostic performance of peptide receptor-targeted radionuclide therapy for cancers” (University of Iowa Research Foundation, priority 2020, dated 2025):
# Like-named read-outs stand apart in the source and are kept apart here.
# Assays:
# [1] = biological target: T1, SSTR2-positive AR42J cells (Rattus norvegicus, UniProt P30680); experiment: ^125I-TOC competitive binding assay in AR42J cells
# T1 construct: endogenous in cells; host or cells: AR42J rat pancreatic acinar cells
# T1 sequence (P30680 whole entry): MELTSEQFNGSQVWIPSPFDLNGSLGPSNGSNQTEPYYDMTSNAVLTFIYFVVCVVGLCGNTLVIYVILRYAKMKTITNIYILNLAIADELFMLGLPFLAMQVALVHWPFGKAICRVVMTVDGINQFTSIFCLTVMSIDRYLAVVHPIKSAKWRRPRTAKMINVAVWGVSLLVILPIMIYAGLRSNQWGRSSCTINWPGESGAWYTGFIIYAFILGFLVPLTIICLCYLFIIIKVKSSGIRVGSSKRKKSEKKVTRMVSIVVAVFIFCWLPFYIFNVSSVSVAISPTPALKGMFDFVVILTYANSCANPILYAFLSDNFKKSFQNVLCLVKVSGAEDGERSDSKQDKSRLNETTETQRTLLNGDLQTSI
# Method: ^125I-TOC Competitive Binding Assay
# TOC was labeled with iodine-125 (^125I) by conventional chloramine T method as described elsewhere (23). 1.0×10^5 AR42J rat pancreatic acinar cells were plated into poly-D-lysine-coated 24-well plates. […] The cells were then washed twice with ice-cold PBS and lysed with 0.5 N NaOH, and the radioactivity was measured via a gamma counter. The half maximal inhibitory concentration (IC50) was determined using GraphPad Prism V8.0.
# [2] = ^212Pb-PSC-PEG2-TOC toxicity studies with escalating doses; format: in vivo, CD-1 Elite (SOPF) male mice
# Source text: FIG. 12A-12F. Dosimetry and toxicities of escalated doses (up to 150 μCi) of ^212Pb—PSC-PEG2-TOC in CD-1 Elite (SOPF) male mice. (A) Body weight change after the injection of ^212Pb-PSC-PEG2-TOC. […] (B) ^212Pb-PSC-PEG2-TOC biodistribution in CD-1 Elite (SOPF) male mice. ^212Pb is used for the study to include the impact of potential demetallation of ^212Pb and redistribution in bone marrow. (C) Estimated renal dose arising from the escalating doses of ^212Pb-PSC-PEG2-TOC based on the biodistribution in CD-1 Elite (SOPF) male mice. Organ level internal dose assessment (OLINDA) V2.1 was used for dose estimation in mice using 30 g mouse voxel phantom model. (D-E) The levels of renal toxicity markers arising from the escalating doses of ^212Pb-PSC-PEG2-TOC assessed by urine neutrophil gelatinase-associated lipocalin (uNGAL; D) at day 1 and day 3 post-administration and blood urea nitrogen (BUN; E) at 3 months post-administration.
# ^212Pb-PSC-PEG2-TOC Toxicity Studies
# Escalating doses (0, 0.37, 1.85, 3.33, and 5.55 MBq or 0, 10, 50, 90, and 150 μCi) of ^212Pb-PSC-PEG2-TOC were administered to tumor-free CD-1 Elite (SOPF) male mice (n=4 for each group). Body weight was measured 2 times a week by 3 weeks post-injection and 1 time a week afterwards. Urine samples were collected (via metabolic case) at day 1 and day 3 post-administration to evaluate acute tubular toxicities in kidneys. […]
# [3] = AR42J cells, 2 hours at 37° C., mean ± spread, read-out: IC50, competitive inhibition of ^125I-tyr^3-octreotide (^125I-TOC) binding
Structure (SMILES),"IC50 [1, 3] [nM]",other results
C[C@@H](O)[C@@H]1NC(=O)[C@H](CCCCN)NC(=O)[C@@H](Cc2c[nH]c3ccccc23)NC(=O)[C@H](Cc2ccc(O)cc2)NC(=O)[C@@H](NC(=O)[C@@H](Cc2ccccc2)NC(=O)CN2CCN(CC(=O)O)CCN(CC(N)=O)CCN(CC(=O)O)CC2)CSSC[C@@H](C(=O)N[C@H](CO)[C@@H](C)O)NC1=O [PSC-TOC],6.2 ± 1.1,
C[C@@H](O)[C@@H]1NC(=O)[C@H](CCCCN)NC(=O)[C@@H](Cc2c[nH]c3ccccc23)NC(=O)[C@H](Cc2ccc(O)cc2)NC(=O)[C@@H](NC(=O)[C@@H](Cc2ccccc2)NC(=O)CCOCCOCCNC(=O)CN2CCN(CC(=O)O)CCN(CC(N)=O)CCN(CC(=O)O)CC2)CSSC[C@@H](C(=O)N[C@H](CO)[C@@H](C)O)NC1=O [PSC-PEG2-TOC],5.3 ± 1.2,
"C[C@@H](O)[C@@H]1NC(=O)[C@H](CCCCN)NC(=O)[C@@H](Cc2c[nH]c3ccccc23)NC(=O)[C@H](Cc2ccc(O)cc2)NC(=O)[C@@H](NC(=O)[C@@H](Cc2ccccc2)NC(=O)CCOCCOCCNC(=O)CN2CCN(CC(=O)O)CCN(CC(N)=O)CCN(CC(=O)O)CC2)CSSC[C@@H](C(=O)N[C@H](CO)[C@@H](C)O)NC1=O [^212Pb-PSC-PEG2-TOC, metal not drawn]",,"hematologic toxicity by complete blood count (CBC) ([2]; doses up to 150 μCi, week 1, 2, and 4 post-administration): reversible hematologic toxicity; body weight change after injection ([2]; escalated doses up to 150 μCi, tumor-free mice): After an initial decrease in body weight in first days, the body weight of the treated mice increased gradually"
"C[C@@H](O)[C@@H]1NC(=O)[C@H](CCCCN)NC(=O)[C@@H](Cc2c[nH]c3ccccc23)NC(=O)[C@H](Cc2ccc(O)cc2)NC(=O)[C@@H](NC(=O)[C@H](N)Cc2ccccc2)CSSC[C@@H](C(=O)N[C@H](CO)[C@@H](C)O)NC1=O [TOC, Tyr^3-octreotide, reference compound]",,IC50 [1]: 3.1 ± 1.1 nM
C[C@@H](O)[C@@H]1NC(=O)[C@H](CCCCN)NC(=O)[C@@H](Cc2c[nH]c3ccccc23)NC(=O)[C@H](Cc2ccc(O)cc2)NC(=O)[C@@H](NC(=O)[C@@H](Cc2ccccc2)NC(=O)CCOCCOCCOCCOCCNC(=O)CN2CCN(CC(=O)O)CCN(CC(N)=O)CCN(CC(=O)O)CC2)CSSC[C@@H](C(=O)N[C@H](CO)[C@@H](C)O)NC1=O [PSC-PEG4-TOC],9.4 ± 1.3,
